What was measured:
Assay type in all cases: functional
Helicobacter pylori = test: Antibacterial activity against Helicobacter pylori 51 assessed as reduction in microbial growth after 24 hrs by two-fold serial dilution method
[1] = system: Staphylococcus epidermidis; test: Antibacterial activity against Staphylococcus epidermidis assessed as reduction in bacterial growth after 24 hrs by two-fold serial dilution method
Candida albicans = test: Antifungal activity against Candida albicans assessed as reduction in […] by two-fold serial dilution method
Escherichia coli = test: Antibacterial activity against Escherichia coli assessed as reduction in bacterial growth after 24 hrs by two-fold serial dilution method

Row | SMILES | MIC (Helicobacter pylori) [µg/mL] | MIC50 (Helicobacter pylori) [µg/mL] | MIC [1] [µg/mL] | MIC (Candida albicans) [µg/mL] | MIC (Escherichia coli) [µg/mL]
1 | O=c1c(-c2cc(Br)c(O)c(Br)c2)coc2c(Br)c(O)ccc12 | 35.1 | 6.9 | – | – | –
2 | O=c1c(-c2cc(Cl)c(O)c(Cl)c2)coc2c(Cl)c(O)c(Cl)cc12 | – | – | > 50 | > 50 | > 50
3 | Cc1ncc([N+](=O)[O-])n1CCO [METRONIDAZOLE] | 4.3 | 11.8 | – | – | –
4 | COc1cc2c(=O)c(-c3cc(Cl)c(O)c(Cl)c3)coc2cc1O | – | – | > 50 | > 50 | > 50
5 | COc1cc2occ(-c3cc(Cl)c(O)c(Cl)c3)c(=O)c2cc1OC | – | – | > 50 | > 50 | > 50
6 | O=c1c(-c2ccc(O)cc2)coc2c(Cl)c(O)c(Cl)c(O)c12 | – | – | > 50 | > 50 | > 50

The next lines start with the values.

Row | MIC (Helicobacter pylori) [µg/mL] | MIC50 (Helicobacter pylori) [µg/mL] | MIC [1] [µg/mL] | MIC (Candida albicans) [µg/mL] | MIC (Escherichia coli) [µg/mL] | SMILES
7 | 58.1 | 14.5 | – | – | – | O=c1c(-c2cc(Br)c(O)c(Br)c2)coc2c(Br)c(O)c(Br)c(O)c12
8 | – | – | > 50 | > 50 | > 50 | O=c1c(-c2cc(Cl)c(O)c(Cl)c2)coc2c(Cl)c(O)c(Cl)c(O)c12
9 | – | – | > 50 | > 50 | > 50 | O=c1c(-c2cc(Cl)c(O)c(Cl)c2)coc2cc(O)ccc12
10 | – | – | > 50 | > 50 | > 50 | O=c1c(-c2ccc(O)cc2)coc2c(Cl)c(O)c(O)c(Cl)c12
11 | – | – | > 50 | > 50 | > 50 | COc1cc2c(=O)c(-c3cc(Cl)c(O)c(Cl)c3)coc2c(Cl)c1O

Reference: ChEMBL document CHEMBL4699506, “Polyhalogenation of Isoflavonoids by the Termite-Associated Actinomadura sp. RB99” (2020)
